{
  "source": "patent US20240374598A1",
  "about": "“INHIBITORS OF HUMAN IMMUNODEFICIENCY VIRUS REPLICATION” (ViiV HEALTHCARE UK (NO.5) LIMITED, priority 2018, published 2024)",
  "key": {"[1]": {"assay": "Compound cytotoxicity, XTT-based colorimetric assay", "assay_type": "cell-based", "conditions": "human; uninfected MT2 cells, day 4, XTT assay", "experimental": "Compound cytotoxicity and the corresponding CC50 values were determined using the same protocol as described in the antiviral assay except that uninfected cells were used. Cytotoxicity was assessed on day 4 in uninfected MT2 cells by using a XTT (2,3-bis[2-Methoxy-4-nitro-5-sulfophenyl]-2H-tetrazolium-5-carboxyanilide inner salt)-based colorimetric assay (Sigma-Aldrich, St Louis, Mo)."}, "[2]": {"tested_on": "recombinant NL4-3 virus (nef section replaced with Renilla luciferase gene) in MT-2 cells", "assay": "HIV cell culture assay (antiviral activity, luciferase readout)", "assay_type": "cell-based", "conditions": "NL43, MT-2 cells infected for 4-5 days with recombinant NL4-3 Renilla luciferase virus", "experimental": "HIV cell culture assay—MT-2 cells, 293T cells and the proviral DNA clone of NL4-3 virus were obtained from the NIH AIDS Research and Reference Reagent Program. MT-2 cells were propagated in RPMI 1640 media supplemented with 10% heat inactivated fetal bovine serum (FBS), […]. The 293T cells were propagated in DMEM media supplemented with 10% heat inactivated FBS, […]. A recombinant NL4-3 proviral clone, in which a section of the nef gene was replaced with the Renilla luciferase gene, was used to make the reference virus used in these studies. The recombinant virus was prepared through transfection of the recombinant NL4-3 proviral clone into 293T cells using Transit-293 Transfection Reagent from Mirus Bio LLC (Madison, WI). Supernatent was harvested after 2-3 days and the amount of virus present was titered in MT-2 cells using luciferase enzyme activity as a marker by measuring luciferase enzyme activity. Luciferase was quantitated using the EnduRen Live Cell Substrate from Promega (Madison, WI). Antiviral activities of compounds toward the recombinant virus were quantified by measuring luciferase activity in MT-2 cells infected for 4-5 days with the recombinant virus in the presence of serial dilutions of the compound.\nThe 50% effective concentration (EC50) was calculated by using the exponential form of the median effect equation where (Fa)=1/[1+(ED50/drug conc.)m] (Johnson VA, Byington RT. Infectivity Assay. In Techniques in HIV Research. ed. Aldovini A, Walker BD. 71-76. New York: Stockton Press. 1990). The 50% inhibitory concentration (EC50) was calculated by using the exponential form of the median effect equation where percent inhibition=1/[1+(EC50/drug concentration)m], where m is a parameter that reflects the slope of the concentration-response curve."}},
  "note": "pEC50: −log10 of the molar value.",
  "data": [
    {"molecule": "COc1nc2nc([C@H](Cc3cc(F)cc(F)c3)NC(=O)Cn3nc(C(F)F)c4c3C(F)(F)C3CC43)n(-c3ccc(Cl)c4c(NS(C)(=O)=O)nn(C)c34)c(=O)c2cc1Cl", "note": "(stereo in doubt) [Example 37, N—((S)-1-(6-chloro-3-(4-chloro-1-methyl-3-(methylsulfonamido)-1H-indazol-7-yl)-7-methoxy-4-oxo-3,4-dihydropyrido[2,3-d]pyrimidin-2-yl)-2-(3,5-difluorophenyl)ethyl)-2-((3bS,4aR)-3-(difluoromethyl)-5,5-difluoro-3b,4,4a,5-tetrahydro-1H-cyclopropa[3,4]cyclopenta[1,2-c]pyrazol-1-yl)acetamide]", "values": [
      {"measurement": "CC50 at 4 day", "setting": "[1]", "value": "> 1000", "unit": "nM"},
      {"measurement": "pEC50", "setting": "[2]", "value": 10.36}
    ]},
    {"molecule": "CC(C)Oc1ccc2c(=O)n(-c3ccc(Cl)c4c(NS(C)(=O)=O)nn(C)c34)c([C@H](Cc3cc(F)cc(F)c3)NC(=O)Cn3nc(C(F)F)c4c3C(F)(F)C3CC43)nc2n1", "note": "(stereo in doubt) [Example 38, N—((S)-1-(3-(4-chloro-1-methyl-3-(methylsulfonamido)-1H-indazol-7-yl)-7-isopropoxy-4-oxo-3,4-dihydropyrido[2,3-d]pyrimidin-2-yl)-2-(3,5-difluorophenyl)ethyl)-2-((3bS,4aR)-3-(difluoromethyl)-5,5-difluoro-3b,4,4a,5-tetrahydro-1H-cyclopropa[3,4]cyclopenta[1,2-c]pyrazol-1-yl)acetamide]", "values": [
      {"measurement": "CC50 at 4 day", "setting": "[1]", "value": "> 1000", "unit": "nM"},
      {"measurement": "pEC50", "setting": "[2]", "value": 10.35}
    ]},
    {"molecule": "COc1cnc2c(=O)n(-c3ccc(Cl)c4c(NS(C)(=O)=O)nn(C)c34)c([C@H](Cc3cc(F)cc(F)c3)NC(=O)Cn3nc(C(F)F)c4c3C(F)(F)C3CC43)nc2c1", "note": "(stereo in doubt) [Example 39, N—((S)-1-(3-(4-chloro-1-methyl-3-(methylsulfonamido)-1H-indazol-7-yl)-7-methoxy-4-oxo-3,4-dihydropyrido[3,2-d]pyrimidin-2-yl)-2-(3,5-difluorophenyl)ethyl)-2-((3bS,4aR)-3-(difluoromethyl)-5,5-difluoro-3b,4,4a,5-tetrahydro-1H-cyclopropa[3,4]cyclopenta[1,2-c]pyrazol-1-yl)acetamide]", "values": [
      {"measurement": "CC50 at 4 day", "setting": "[1]", "value": "> 1000", "unit": "nM"},
      {"measurement": "pEC50", "setting": "[2]", "value": 10.80}
    ]},
    {"molecule": "Cn1nc(NS(C)(=O)=O)c2c(Cl)ccc(-n3c([C@H](Cc4cc(F)cc(F)c4)NC(=O)Cn4nc(C(F)F)c5c4C(F)(F)[C@@H]4C[C@H]54)nc4cc(Br)ccc4c3=O)c21", "note": "[Example 1, N—((S)-1-(7-bromo-3-(4-chloro-1-methyl-3-(methylsulfonamido)-1H-indazol-7-yl)-4-oxo-3,4-dihydroquinazolin-2-yl)-2-(3,5-difluorophenyl)ethyl)-2-((3bS,4aR)-3-(difluoromethyl)-5,5-difluoro-3b,4,4a,5-tetrahydro-1H-cyclopropa[3,4]cyclopenta[1,2-c]pyrazol-1-yl)acetamide]", "values": [
      {"measurement": "CC50 at 4 day", "setting": "[1]", "value": "> 1000", "unit": "nM"},
      {"measurement": "pEC50", "setting": "[2]", "value": 10.34}
    ]},
    {"molecule": "Cn1nc(NS(C)(=O)=O)c2c(Cl)ccc(-n3c([C@H](Cc4cc(F)cc(F)c4)NC(=O)Cn4nc(C(F)F)c5c4C(F)(F)[C@@H]4C[C@H]54)nc4cc(O)ccc4c3=O)c21", "note": "[Example 4, N—((S)-1-(3-(4-chloro-1-methyl-3-(methylsulfonamido)-1H-indazol-7-yl)-7-hydroxy-4-oxo-3,4-dihydroquinazolin-2-yl)-2-(3,5-difluorophenyl)ethyl)-2-((3bS,4aR)-3-(difluoromethyl)-5,5-difluoro-3b,4,4a,5-tetrahydro-1H-cyclopropa[3,4]cyclopenta[1,2-c]pyrazol-1-yl)acetamide]", "values": [
      {"measurement": "CC50 at 4 day", "setting": "[1]", "value": "> 1000", "unit": "nM"},
      {"measurement": "pEC50", "setting": "[2]", "value": 9.56}
    ]},
    {"molecule": "COc1ccc2c(=O)n(-c3ccc(Cl)c4c(NS(C)(=O)=O)nn(C)c34)c([C@H](Cc3cc(F)cc(F)c3)NC(=O)Cn3ccc(C(C)C)n3)nc2c1", "note": "[Example 5, (S)—N-(1-(3-(4-chloro-1-methyl-3-(methylsulfonamido)-1H-indazol-7-yl)-7-methoxy-4-oxo-3,4-dihydroquinazolin-2-yl)-2-(3,5-difluorophenyl)ethyl)-2-(3-isopropyl-1H-pyrazol-1-yl)acetamide]", "values": [
      {"measurement": "CC50 at 4 day", "setting": "[1]", "value": "> 1000", "unit": "nM"},
      {"measurement": "pEC50", "setting": "[2]", "value": 9.12}
    ]},
    {"molecule": "COc1ccc2c(=O)n(-c3ccc(Cl)c4c(NS(C)(=O)=O)nn(C)c34)c([C@H](Cc3cc(F)cc(F)c3)NC(=O)Cn3ccc(C4CC4)n3)nc2c1", "note": "[Example 6, (S)—N-(1-(3-(4-chloro-1-methyl-3-(methylsulfonamido)-1H-indazol-7-yl)-7-methoxy-4-oxo-3,4-dihydroquinazolin-2-yl)-2-(3,5-difluorophenyl)ethyl)-2-(3-cyclopropyl-1H-pyrazol-1-yl)acetamide]", "values": [
      {"measurement": "CC50 at 4 day", "setting": "[1]", "value": "> 1000", "unit": "nM"},
      {"measurement": "pEC50", "setting": "[2]", "value": 9.46}
    ]},
    {"molecule": "COc1ccc2c(=O)n(-c3ccc(Cl)c4c(NS(C)(=O)=O)nn(C)c34)c([C@H](Cc3cc(F)cc(F)c3)NC(=O)Cn3ccc(C4CCC4)n3)nc2c1", "note": "[Example 7, (S)—N-(1-(3-(4-chloro-1-methyl-3-(methylsulfonamido)-1H-indazol-7-yl)-7-methoxy-4-oxo-3,4-dihydroquinazolin-2-yl)-2-(3,5-difluorophenyl)ethyl)-2-(3-cyclobutyl-1H-pyrazol-1-yl)acetamide]", "values": [
      {"measurement": "CC50 at 4 day", "setting": "[1]", "value": "> 1000", "unit": "nM"},
      {"measurement": "pEC50", "setting": "[2]", "value": 9.05}
    ]},
    {"molecule": "COc1cc(F)c2c(=O)n(-c3ccc(Cl)c4c(NS(=O)(=O)C5CC5)nn(CC(F)F)c34)c([C@H](Cc3cc(F)cc(F)c3)NC(=O)Cn3nc(C(F)F)c4c3C(F)(F)[C@@H]3C[C@H]43)nc2c1", "note": "[Example 8, N—((S)-1-(3-(4-chloro-3-(cyclopropanesulfonamido)-1-(2,2-difluoroethyl)-1H-indazol-7-yl)-5-fluoro-7-methoxy-4-oxo-3,4-dihydroquinazolin-2-yl)-2-(3,5-difluorophenyl)ethyl)-2-((3bS,4aR)-3-(difluoromethyl)-5,5-difluoro-3b,4,4a,5-tetrahydro-1H-cyclopropa[3,4]cyclopenta[1,2-c]pyrazol-1-yl)acetamide]", "values": [
      {"measurement": "CC50 at 4 day", "setting": "[1]", "value": "> 1000", "unit": "nM"},
      {"measurement": "pEC50", "setting": "[2]", "value": 9.82}
    ]},
    {"molecule": "Cn1nc(NS(C)(=O)=O)c2c(Cl)ccc(-n3c([C@H](Cc4cc(F)cc(F)c4)NC(=O)Cn4nc(C(F)F)c5c4C(F)(F)[C@@H]4C[C@H]54)nc4cc(OCCCF)ccc4c3=O)c21", "note": "[Example 9, N—((S)-1-(3-(4-chloro-1-methyl-3-(methylsulfonamido)-1H-indazol-7-yl)-7-(3-fluoropropoxy)-4-oxo-3,4-dihydroquinazolin-2-yl)-2-(3,5-difluorophenyl)ethyl)-2-((3bS,4aR)-3-(difluoromethyl)-5,5-difluoro-3b,4,4a,5-tetrahydro-1H-cyclopropa[3,4]cyclopenta[1,2-c]pyrazol-1-yl)acetamide]", "values": [
      {"measurement": "CC50 at 4 day", "setting": "[1]", "value": "> 1000", "unit": "nM"},
      {"measurement": "pEC50", "setting": "[2]", "value": 10.31}
    ]},
    {"molecule": "CC(C)Oc1ccc2c(=O)n(-c3ccc(Cl)c4c(NS(C)(=O)=O)nn(C)c34)c([C@H](Cc3cc(F)cc(F)c3)NC(=O)Cn3nc(C(F)F)c4c3C(F)(F)[C@@H]3C[C@H]43)nc2c1", "note": "[Example 10, N—((S)-1-(3-(4-chloro-1-methyl-3-(methylsulfonamido)-1H-indazol-7-yl)-7-isopropoxy-4-oxo-3,4-dihydroquinazolin-2-yl)-2-(3,5-difluorophenyl)ethyl)-2-((3bS,4aR)-3-(difluoromethyl)-5,5-difluoro-3b,4,4a,5-tetrahydro-1H-cyclopropa[3,4]cyclopenta[1,2-c]pyrazol-1-yl)acetamide]", "values": [
      {"measurement": "CC50 at 4 day", "setting": "[1]", "value": "> 1000", "unit": "nM"},
      {"measurement": "pEC50", "setting": "[2]", "value": 9.97}
    ]},
    {"molecule": "CCCCOc1ccc2c(=O)n(-c3ccc(Cl)c4c(NS(C)(=O)=O)nn(C)c34)c([C@H](Cc3cc(F)cc(F)c3)NC(=O)Cn3nc(C(F)F)c4c3C(F)(F)[C@@H]3C[C@H]43)nc2c1", "note": "[Example 11, N—((S)-1-(7-butoxy-3-(4-chloro-1-methyl-3-(methylsulfonamido)-1H-indazol-7-yl)-4-oxo-3,4-dihydroquinazolin-2-yl)-2-(3,5-difluorophenyl)ethyl)-2-((3bS,4aR)-3-(difluoromethyl)-5,5-difluoro-3b,4,4a,5-tetrahydro-1H-cyclopropa[3,4]cyclopenta[1,2-c]pyrazol-1-yl)acetamide]", "values": [
      {"measurement": "CC50 at 4 day", "setting": "[1]", "value": "> 1000", "unit": "nM"},
      {"measurement": "pEC50", "setting": "[2]", "value": 9.68}
    ]},
    {"molecule": "CC(C)(C)c1ccc2c(=O)n(-c3ccc(Cl)c4c(NS(C)(=O)=O)nn(CC(F)(F)F)c34)c([C@H](Cc3cc(F)cc(F)c3)NC(=O)Cn3nc(C(F)F)c4c3C(F)(F)[C@@H]3C[C@H]43)nc2c1", "note": "[Example 28, N—((S)-1-(7-(tert-butyl)-3-(4-chloro-3-(methylsulfonamido)-1-(2,2,2-trifluoroethyl)-1H-indazol-7-yl)-4-oxo-3,4-dihydroquinazolin-2-yl)-2-(3,5-difluorophenyl)ethyl)-2-((3bS,4aR)-3-(difluoromethyl)-5,5-difluoro-3b,4,4a,5-tetrahydro-1H-cyclopropa[3,4]cyclopenta[1,2-c]pyrazol-1-yl)acetamide]", "values": [
      {"measurement": "CC50 at 4 day", "setting": "[1]", "value": "> 1000", "unit": "nM"}
    ]}
  ]
}
